{"source": "patent US20240210394A1", "about": "“MICROORGANISM CAPTURE FROM ANTIMICROBIAL-CONTAINING SOLUTION” (MOMENTUM BIOSCIENCE LIMITED, priority 2019, published 2024)", "key": {"E. coli": {"system": "E. coli", "assay": "TVC viability of E. coli in whole blood with SPS over time", "assay_type": "cell-based", "protocol": "2×5 mL whole blood or BacTec PLUS aerobic blood broth (1:3 ratio) aliquoted for each sample-set (E. coli and NSC sample). Then SPS added as follows:\nThen 5 μL of E. coli 1E-2 preculture added to each 5-mL specimen tube to recreate standard 1E-5 dilution sample\n• 1.88 μL neat o/n in Nutrient Broth (NB) added to 3 mL NB; and incubated for 2 hours at 37° C., 500 rpm • After 2 hours, E. coli preculture diluted 10-fold in warm NB; and then 5 μL added to each 5 mL specimen tube (prepared as shown in test conditions) • Magnitor Test initiated immediately, and TVCs performed as detailed below.\n• 100 μL on COL plates at Time Zero • Sample bijous, containing approximately 2 mL sample, left at room temperature (20.4° C.) on bench (static) • TVCs performed at time points shown in table: samples mixed thoroughly before plating"}, "S. aureus": {"system": "S. aureus", "assay": "Blood culture time to positivity (flip time), bead rescue vs no-rescue control", "assay_type": "cell-based", "conditions": "for Flip time: Bead rescue; for Flip time in hours/mins: 2 h at 37° C.; for Time to positivity in days: 900 cfu/5 ml", "protocol": "An overnight culture of test organism was prepared in blood/broth medium (50:50 blood:broth medium from a BioMerieux SA culture bottle).\nTen-fold serial dilutions of overnight culture was prepared in blood/broth as required.\nAntibiotic (abx) was added to whole human blood (in citrate-phosphate-dextrose, CPD, an anticoagulant) at required level.\nWhole blood was used as the no-antibiotic control.\nTest dilution(s) of organism was added to blood+antibiotic or blood only at 10 μL per mL of blood (sufficient prepared for experiment requirements). 100 μL plate count sample was taken (TO sample).\nThe inoculated samples were incubated at 37° C. (static) for 2-hour. 100 μL plate count sample was taken (T2 sample).\nFor the control, 5 mL of spiked blood+abx or blood only was added to blood culture bottles (BioMerieux SA culture bottle) using a vial adapter (West Pharmaceutical Services, Inc. PA, US) and incubated in the automated blood culture cabinet (adapter removed).\nFor the ‘rescue’ test, 5 mL of spiked blood+abx or blood only was treated with Momentum Capture Beads (Streptavidin-coated, −300 nm beads, Bio estapor, Merk Cat #BE-M 08/0.3) as below: • Momentum Capture Beads diluted in Detergent-free Microbial Binding Buffer (DMBB—Tris+NaCl)—50 μL beads:700 μL DMBB per clean-up • 750 μL of diluted beads added to 50 mL conical centrifuge tube • 5 mL of broth medium added to tube • 5 mL of spiked blood+abx or blood only added to tube • Incubate on ITL TherMix (Integrated Technologies Ltd. Kent, UK), 32.5° C./30 min/1000 rpm—ramped speed protocol • Magnetise on V&P magnet (V&P scientific Inc, CA, US) for 5 min then remove supernatant • Resuspend beads in 1 mL Detergent-free Wash Buffer (DWB—Tris+NaCl) off magnet and transfer to 2 mL Eppendorf flip-top tube on DynaMag-2 magnet (Thermo Fisher Scientific, Life Technologies Ltd. Paisley, UK) • Magnetise for 5 min then remove supernatant • Resuspend beads in 1 mL DWB off magnet then replace on DynaMag-2 magnet • Magnetise for 5 min then remove supernatant • Resuspend beads in 1 mL DWB, add to a fresh, unused blood culture bottle (BioMerieux SA culture bottle) containing standard blood culture growth medium using a vial adapter, and start incubation (adapter removed). • Blood culture bottles are incubated in the automated blood culture cabinet (BacT/ALERT BioMerieux) which records time to positivity. The “Flip” time is when a bottle turns positive as determined by the automated blood culture cabinet. • “Flip” time of each bottle is recorded. • Plate counts (Total Viable Count TVC) are recorded.\nDay 1: Prepare overnight culture of test organism in blood/broth medium (50:50 blood:broth) and incubate at 37° C. in a shaking incubator.\nDay 2: Prepare ten-fold serial dilution of overnight culture in blood/broth as required • Antibiotic added to whole blood (defibrinated horse blood) at required level • Whole blood as no-antibiotic control • Test dilution(s) of organism added to blood+antibiotic or blood only at 10 μL per mL of blood (sufficient prepared for experiment requirements) • 100 μL plate count sample taken (TO sample) • 2-hour incubation at 37° C. (static), to mimic organism exposure to antimicrobials in the patient • 100 μL plate count sample taken (T2 sample) • 5 mL of spiked blood+abx or blood only added to blood culture bottle (using vial adapter) and incubation started (adapter removed) • 5 mL of spiked blood+abx or blood only (from same source) treated with Momentum Capture Beads as below: • 1. Momentum Capture Beads diluted in Detergent-free Microbial Binding Buffer (DMBB)—50 μL beads:700 μL DMBB per clean-up • 2. 750 μL of diluted beads added to 50 mL conical centrifuge tube • 3. 5 mL of transfer medium added to tube • 4. 5 mL of spiked blood+abx or blood only added to tube • 5."}}, "data": [{"compound": "Sodium polyanethol sulfonate [SPS]", "values": [{"measurement": "FOLD INCR. 0-2 hr", "setting": "E. coli; WB SPS 0.01 %", "value": 3.39}, {"measurement": "TVC colonies", "setting": "E. coli; WB SPS 0.01 %, EC Time 2 hrs", "value": 498, "unit": "colonies"}, {"measurement": "TVC colonies", "setting": "E. coli; WB SPS 0.01 %, EC Time 4 hrs", "value": "TNTC"}, {"measurement": "TVC colonies", "setting": "E. coli; WB SPS 0.01 %, EC Time 6 hrs", "value": "TNTC"}, {"measurement": "TVC colonies", "setting": "E. coli; WB SPS 0.01 %, EC Time 21 hrs", "value": "LAWN"}, {"measurement": "TVC colonies", "setting": "E. coli; WB SPS 0.01 %, EC Time ZERO", "value": 147, "unit": "colonies"}, {"measurement": "FOLD INCR. 0-2 hr", "setting": "E. coli; WB SPS 0.02 %", "value": 4.67}, {"measurement": "TVC colonies", "setting": "E. coli; WB SPS 0.02 %, EC Time 2 hrs", "value": 448, "unit": "colonies"}, {"measurement": "TVC colonies", "setting": "E. coli; WB SPS 0.02 %, EC Time 4 hrs", "value": "TNTC"}, {"measurement": "TVC colonies", "setting": "E. coli; WB SPS 0.02 %, EC Time 6 hrs", "value": "TNTC"}, {"measurement": "TVC colonies", "setting": "E. coli; WB SPS 0.02 %, EC Time 21 hrs", "value": "LAWN"}, {"measurement": "TVC colonies", "setting": "E. coli; WB SPS 0.02 %, EC Time ZERO", "value": 96, "unit": "colonies"}, {"measurement": "FOLD INCR. 0-2 hr", "setting": "E. coli; WB SPS 0.04 %", "value": 3.12}, {"measurement": "TVC colonies", "setting": "E. coli; WB SPS 0.04 %, EC Time 2 hrs", "value": 1106, "unit": "colonies"}, {"measurement": "TVC colonies", "setting": "E. coli; WB SPS 0.04 %, EC Time 4 hrs", "value": "TNTC"}, {"measurement": "TVC colonies", "setting": "E. coli; WB SPS 0.04 %, EC Time 6 hrs", "value": "TNTC"}, {"measurement": "TVC colonies", "setting": "E. coli; WB SPS 0.04 %, EC Time 21 hrs", "value": "LAWN"}, {"measurement": "TVC colonies", "setting": "E. coli; WB SPS 0.04 %, EC Time ZERO", "value": 354, "unit": "colonies"}, {"measurement": "FOLD INCR. 0-2 hr", "setting": "E. coli; WB SPS 0.06 %", "value": 5.94}, {"measurement": "TVC colonies", "setting": "E. coli; WB SPS 0.06 %, EC Time 2 hrs", "value": 760, "unit": "colonies"}, {"measurement": "TVC colonies", "setting": "E. coli; WB SPS 0.06 %, EC Time 4 hrs", "value": "TNTC"}, {"measurement": "TVC colonies", "setting": "E. coli; WB SPS 0.06 %, EC Time 6 hrs", "value": "TNTC"}, {"measurement": "TVC colonies", "setting": "E. coli; WB SPS 0.06 %, EC Time 21 hrs", "value": "LAWN"}, {"measurement": "TVC colonies", "setting": "E. coli; WB SPS 0.06 %, EC Time ZERO", "value": 128, "unit": "colonies"}, {"measurement": "FOLD INCR. 0-2 hr", "setting": "E. coli; WB SPS 0.08 %", "value": 1.52}, {"measurement": "TVC colonies", "setting": "E. coli; WB SPS 0.08 %, EC Time 2 hrs", "value": 491, "unit": "colonies"}, {"measurement": "TVC colonies", "setting": "E. coli; WB SPS 0.08 %, EC Time 4 hrs", "value": "TNTC"}, {"measurement": "TVC colonies", "setting": "E. coli; WB SPS 0.08 %, EC Time 6 hrs", "value": "TNTC"}, {"measurement": "TVC colonies", "setting": "E. coli; WB SPS 0.08 %, EC Time 21 hrs", "value": "LAWN"}, {"measurement": "TVC colonies", "setting": "E. coli; WB SPS 0.08 %, EC Time ZERO", "value": 322, "unit": "colonies"}, {"measurement": "FOLD INCR. 0-2 hr", "setting": "E. coli; WB SPS 0.1 %", "value": 2.71}, {"measurement": "TVC colonies", "setting": "E. coli; WB SPS 0.1 %, EC Time 2 hrs", "value": 341, "unit": "colonies"}, {"measurement": "TVC colonies", "setting": "E. coli; WB SPS 0.1 %, EC Time 4 hrs", "value": "TNTC"}, {"measurement": "TVC colonies", "setting": "E. coli; WB SPS 0.1 %, EC Time 6 hrs", "value": "TNTC"}, {"measurement": "TVC colonies", "setting": "E. coli; WB SPS 0.1 %, EC Time 21 hrs", "value": "LAWN"}, {"measurement": "TVC colonies", "setting": "E. coli; WB SPS 0.1 %, EC Time ZERO", "value": 126, "unit": "colonies"}]}, {"compound": "CCN1CCN(C(=O)N[C@@H](C(=O)N[C@@H]2C(=O)N3[C@@H]2SC(C)(C)[C@@H]3C(=O)O)c2ccccc2)C(=O)C1=O", "note": "[Piperacillin]", "values": [{"measurement": "Flip time", "setting": "S. aureus; Piperacillin 96 ug/mL blood, CPD human blood, 750 cfu/5 mL", "value": 0.62, "unit": "days"}, {"measurement": "Flip time", "setting": "S. aureus; Piperacillin 96 ug/mL blood, CPD human blood, 5000 cfu/5 mL", "value": 0.57, "unit": "days"}, {"measurement": "Flip time", "setting": "S. aureus; Piperacillin 96 ug/mL blood, defibrinated horse blood, 5000 cfu/5 ml", "value": 0.78, "unit": "days"}, {"measurement": "Flip time", "setting": "S. aureus; Piperacillin 96 ug/mL blood, defibrinated horse blood, 50000 cfu/5 ml", "value": 0.65, "unit": "days"}, {"measurement": "Flip time", "setting": "S. aureus; S. aureus spike dil 10-3, Piperacillin 96 ug/ml human blood, SA bottle", "value": 0.57, "unit": "days"}, {"measurement": "Flip time", "setting": "S. aureus; S. aureus spike dil 10-4, Piperacillin 96 ug/ml human blood, SA bottle", "value": 0.62, "unit": "days"}, {"measurement": "Flip time in Days", "setting": "S. aureus; Control (no bead rescue), Piperacillin 96 ug/mL blood, CPD human blood, 750 cfu/5 mL", "value": "Neg"}, {"measurement": "Flip time in Days", "setting": "S. aureus; Control (no bead rescue), Piperacillin 96 ug/mL blood, CPD human blood, 5000 cfu/5 mL", "value": "Neg"}, {"measurement": "Flip time in Days", "setting": "S. aureus; Control (no bead rescue), Piperacillin 96 ug/mL blood, defibrinated horse blood, 5000 cfu/5 ml", "value": "Neg"}, {"measurement": "Flip time in Days", "setting": "S. aureus; Control (no bead rescue), Piperacillin 96 ug/mL blood, defibrinated horse blood, 50000 cfu/5 ml", "value": "Neg"}, {"measurement": "Flip time in hours/mins", "setting": "S. aureus; Control (no bead rescue), S. aureus spike dil 10-3, Piperacillin 96 ug/ml human blood, SA bottle", "value": "Negative at 120 h"}, {"measurement": "Flip time in hours/mins", "setting": "S. aureus; Control (no bead rescue), S. aureus spike dil 10-4, Piperacillin 96 ug/ml human blood, SA bottle", "value": "Negative at 120 h"}, {"measurement": "Flip time in Days", "setting": "S. aureus; No bead rescue Control BC, Piperacillin 96 ug/mL blood, 10000 cfu/5 mL", "value": "Neg"}, {"measurement": "Flip time in Days", "setting": "S. aureus; No bead rescue Control BC, Piperacillin 96 ug/mL blood, 50000 cfu/5 mL", "value": "Neg"}, {"measurement": "Time to positivity in days", "setting": "S. aureus; Piperacillin 96 ug/mL blood, Control (no beads)", "value": "Neg"}, {"measurement": "Time to positivity in days", "setting": "S. aureus; Piperacillin 96 ug/mL blood, with magnetic beads in the bottle", "value": "Neg"}]}]}
